According to the NIST ThermoML archive (doi:10.1016/j.jct.2012.01.005):
Numbers after ± are expanded uncertainties.

How the values were obtained:
[1] = Liquid; for mass density: 298.15 K, 101.33 kPa, Buoyancy - hydrostatic balance
[2] = refractive index (Na D-line) (dimensionless); details: 298.15 K; 101.33 kPa; Liquid; Standard Abbe refractometry

ClCC1CO1 (stereo not drawn) [1-chloro-2,3-epoxypropane]
Details | mass density [kg/m3] | refractive index
[1] | 1175.9 ± 12 | –
[2] | – | 1.434 ± 0.002

[1], Visual
Details | vapor or sublimation pressure [kPa]
370.95 K | 55.99 ± 2.1
384.15 K | 88.66 ± 3.4
389.35 K | 100 ± 4.2

CCCC(=O)OCC1CO1 (stereo not drawn) [glycidyl butyrate]
Details | mass density [kg/m3] | refractive index
[1] | 1047 ± 10 | –
[2] | – | 1.429 ± 0.002

[1], Closed cell (Static) method
Details | vapor or sublimation pressure [kPa]
407.85 K | 15.74 ± 1.2
420.25 K | 23.87 ± 1.2
427.85 K | 29.87 ± 1.3
434.15 K | 36.41 ± 1.3
439.15 K | 41.34 ± 1.3
444.25 K | 46.67 ± 1.3
449.15 K | 55.99 ± 2.8
449.25 K | 54.4 ± 1.3
453.85 K | 62.67 ± 1.3
458.15 K | 69.6 ± 1.3
460.45 K | 74.67 ± 1.3
464.55 K | 82.67 ± 1.3
466.55 K | 87.33 ± 1.3
467.15 K | 88.66 ± 4.1
468.75 K | 93.33 ± 1.4
471.15 K | 100 ± 1.4
